In patent publication US20230013602A1, “NOVEL IMIDAZOPYRAZINE DERIVATIVES” (Hoffmann-La Roche Inc., priority 2018, published 2023):
Structures can show the parent of a compound that is named as a salt.

Tests used:
[1] = system: Acinetobacter baumannii ATCC 17978; assay: Antimicrobial susceptibility testing, 90% growth inhibitory concentration (IC90) determination; format: cell-based; conditions: Acinetobacter baumannii ATCC17978, Iso-Sensitest broth, OD 600 nm over 16 h
Description: (§1) The in vitro antimicrobial activity of the compounds was determined according to the following procedure:
(§2) The assay used a 10-points Iso-Sensitest broth medium to measure quantitatively the in vitro activity of the compounds against Acinetobacter baumannii ATCC 17978 and Acinetobacter baumannii ATCC17961.
(§3) Stock compounds in DMSO were serially twofold diluted (e.g. range from 50 to 0.097 μM final concentration) in 384 wells microtiter plates and inoculated with 49 μl the bacterial suspension in Iso-Sensitest medium to have a final cell concentration of ˜5×10^(5) CFU/ml in a final volume/well of 50 ul/well. Microtiter plates were incubated at 35+2° C.
(§4) Bacterial cell growth was determined with the measurement of optical density at X=600 nm each 20 minutes over a time course of 16 h. Growth inhibition was calculated during the logarithmic growth of the bacterial cells with determination of the concentration inhibiting 50% (IC50) and 90% (IC90) of the growth.
(§5) Table 1 provides the 90% growth inhibitory concentrations (IC90) in micromoles per liter of the compounds of present invention obtained against the strain Acinetobacter baumannii ATCC17978 and Acinetobacter baumannii ATCC17961.

[2] = system: Acinetobacter baumannii ATCC17961; assay: as above; format: cell-based; conditions: 90% growth inhibitory concentration, Acinetobacter baumannii ATCC17961, Iso-Sensitest broth, OD 600 nm over 16 h; read-out: ATCC17961 IC90
Description: as §1, §2, §3, §4, §5

| Compound | IC90 [1] | IC90 [2] |
| --- | --- | --- |
| CCc1cc(Nc2nccn3c(-c4ccc(OC)c(F)c4F)cnc23)ccc1C(=O)N[C@@H]1CCCC[C@@H]1N (racemic) [Example 8, rac-N-((1R,2S)-2-aminocyclohexyl)-4-((3-(2,3-difluoro-4-methoxyphenyl)imidazo[1,2-a]pyrazin-8-yl)amino)-2-ethylbenzamide] | 850 nM | 852 nM |
| CCc1cc(Nc2nccn3c(-c4ccc(OC)c(F)c4F)cnc23)ccc1C(=O)NC1(CN)CC1 [Example 4, N-(1-(aminomethyl)cyclopropyl)-4-((3-(2,3-difluoro-4-methoxyphenyl)imidazo[1,2-a]pyrazin-8-yl)amino)-2-ethylbenzamide hydrochloride] | 320 nM | 274 nM |
| CCc1cc(Nc2nccn3c(-c4ccc(OC)c(F)c4F)cnc23)ccc1C(=O)N[C@H]1CC[C@@H](NC(=O)[C@@H](N)CCCNC(=N)N)CC1 [Example 5, N-[4-[[(2S)-2-amino-5-guanidino-pentanoyl]amino]cyclo-hexyl]-4-[[3-(2,3-difluoro-4-methoxy-phenyl)imidazo[1,2-a]pyrazin-8-yl]amino]-2-ethyl-benzamide trifluoroacetate] | 180 nM | 176 nM |
| CCc1cc(Nc2nccn3c(-c4ccc(OC)c(F)c4F)cnc23)ccc1C(=O)N[C@H]1CC[C@@H](N)CC1 [Example 6, Cis-N-(4-aminocyclohexyl)-4-[[3-(2,3-difluoro-4-methoxy-phenyl)imidazo[1,2-a]pyrazin-8-yl]amino]-2-ethyl-benzamide] | 88 nM | 88 nM |
| CCc1cc(Nc2nccn3c(-c4ccc(OC)c(F)c4F)cnc23)ccc1C(=O)N[C@H]1CCC[C@@H]1N [Example 9, N-((1S,2S)-2-aminocyclopentyl)-4-((3-(2,3-difluoro-4-methoxyphenyl)imidazo[1,2-a]pyrazin-8-yl)amino)-2-ethylbenzamide] | 300 nM | 297 nM |
| CCc1cc(Nc2nccn3c(-c4ccc(OC)c(F)c4F)cnc23)ccc1C(=O)N[C@H]1C[C@@H](N)C1 [Example 11, Cis N-(3-aminocyclobutyl)-4-[[3-(2,3-difluoro-4-methoxy-phenyl)imidazo[1,2-a]pyrazin-8-yl]amino]-2-ethyl-benzamide] | 84 nM | 84 nM |
| CCc1cc(Nc2nccn3c(-c4ccc(OC)c(F)c4F)cnc23)ccc1C(=O)NC1CNC1 [Example 12, N-(azetidin-3-yl)-4-[[3-(2,3-difluoro-4-methoxy-phenyl)imidazo[1,2-a]pyrazin-8-yl]amino]-2-ethyl-benzamide] | 230 nM | 230 nM |
| CCc1cc(Nc2nccn3c(-c4ccc(OC)c(F)c4F)cnc23)ccc1C(=O)NC1CCNCC1 [Example 13, 4-[[3-(2,3-difluoro-4-methoxy-phenyl)imidazo[1,2-a]pyrazin-8-yl]amino]-2-ethyl-N-(4-piperidyl)benzamide] | 280 nM | 276 nM |
| CCc1cc(Nc2nccn3c(-c4ccc(OC)c(F)c4F)cnc23)ccc1C(=O)N[C@H]1C[C@H](N)C1 [Example 14, N-(3-aminocyclobutyl)-4-[[3-(2,3-difluoro-4-methoxy-phenyl)imidazo[1,2-a]pyrazin-8-yl]amino]-2-ethyl-benzamide] | 250 nM | 248 nM |
| CCc1cc(Nc2nccn3c(-c4ccc(OC)c(F)c4F)cnc23)ccc1C(=O)NC1(CNC(=N)N)CC1 [Example 18, N-[1-(carbamimidamidomethyl)cyclopropyl]-4-[[3-(2,3-difluoro-4-methoxyphenyl)imidazo[1,2-a]pyrazin-8-yl]amino]-2-ethylbenzamide] | 84 nM | 83 nM |
| CCc1cc(Nc2nccn3c(-c4ccc(OC)c(F)c4F)cnc23)ccc1C(=O)NC1(CNC(C)=N)CC1 [Example 19, 4-[[3-(2,3-difluoro-4-methoxyphenyl)imidazo[1,2-a]pyrazin-8-yl]amino]-N-[1-[(ethanimidoylamino)methyl]cyclopropyl]-2-ethylbenzamide] | 150 nM | 154 nM |
| CCc1cc(Nc2nccn3c(-c4ccc(OC)c(F)c4F)cnc23)ccc1C(=O)N[C@H]1CCNC1=O [Example 30, 4-[[3-(2,3-difluoro-4-methoxyphenyl)imidazo[1,2-a]pyrazin-8-yl]amino]-2-ethyl-N-[(3 S)-2-oxopyrrolidin-3-yl]benzamide] | 930 nM | – |

Second part, the compound after the results:

| IC90 [1] | IC90 [2] | Compound |
| --- | --- | --- |
| 72 nM | 72 nM | COc1ccc(-c2cnc3c(Nc4ccc(C(=O)NC5CCC(NC(=O)[C@@H]6C[C@@H](O)CN6)C5)c(C)c4)nccn23)c(F)c1F (mixture of isomers) [Example 36, rac-(2R,4S)-N-[3-[[4-[[3-(2,3-difluoro-4-methoxyphenyl)imidazo[1,2-a]pyrazin-8-yl]amino]-2-methylbenzoyl]amino]cyclopentyl]-4-hydroxypyrrolidine-2-carboxamide] |
| 53 nM | 53 nM | COc1ccc(-c2cnc3c(Nc4ccc(C(=O)N[C@H]5CC[C@@H](N)CC5)c(C)c4)nccn23)c(F)c1F [Example 31, N-(4-aminocyclohexyl)-4-[[3-(2,3-difluoro-4-methoxyphenyl)imidazo[1,2-a]pyrazin-8-yl]amino]-2-methylbenzamide] |
| 66 nM | 66 nM | COc1ccc(-c2cnc3c(Nc4ccc(C(=O)NC5CCN(C(=O)[C@@H]6C[C@@H](O)CN6)CC5)c(C)c4)nccn23)c(F)c1F [Example 32, 4-[[3-(2,3-difluoro-4-methoxyphenyl)imidazo[1,2-a]pyrazin-8-yl]amino]-N-[1-[(2S,4R)-4-hydroxypyrroIidine-2-carbonyl]piperidin-4-yl]-2-methylbenzamide] |
| 75 nM | 75 nM | COc1ccc(-c2cnc3c(Nc4ccc(C(=O)N[C@H]5CC[C@@H](NC(=C(C)C)N(C)C)CC5)c(C)c4)nccn23)c(F)c1F [Example 33, 4-[[3-(2,3-difluoro-4-methoxyphenyl)imidazo[1,2-a]pyrazin-8-yl]amino]-N-[4-[[1-(dimethylamino)-2-methylprop-1-enyl]amino]cyclohexyl]-2-methylbenzamide;formic acid] |
| 54 nM | 54 nM | COc1ccc(-c2cnc3c(Nc4ccc(C(=O)N[C@H]5CC[C@@H](NC(=O)[C@@H]6C[C@@H](O)CN6)CC5)c(C)c4)nccn23)c(F)c1F [Example 34, (2S,4R)-N-[4-[[4-[[3-(2,3-difluoro-4-methoxyphenyl)imidazo[1,2-a]pyrazin-8-yl]amino]-2-methylbenzoyl]amino]cyclohexyl]-4-hydroxypyrrolidine-2-carboxamide] |
| 63 nM | 62 nM | COc1ccc(-c2cnc3c(Nc4ccc(C(=O)N[C@H]5C[C@@H](N)C5)c(C)c4)nccn23)c(F)c1F [Example 35, N-(3-aminocyclobutyl)-4-[[3-(2,3-difluoro-4-methoxyphenyl)imidazo[1,2-a]pyrazin-8-yl]amino]-2-methylbenzamide] |
| 99 nM | 99 nM | CCc1cc(Nc2nccn3c(-c4ccc(OC)c(F)c4F)cnc23)ccc1C(=O)N[C@H]1C[C@@H](NC(=O)[C@@H](N)CCCNC(=N)N)C1 [Example 37, N-[3-[[(2S)-2-amino-5-carbamimidamidopentanoyl]amino]cyclobutyl]-4-[[3-(2,3-difluoro-4-methoxyphenyl)imidazo[1,2-a]pyrazin-8-yl]amino]-2-ethylbenzamide;2,2,2-trifluoroacetic acid] |
| 160 nM | 162 nM | COc1ccc(-c2cnc3c(Nc4ccc(C(=O)N[C@@H]5CCNC5)c(C)c4)nccn23)c(F)c1F [Example 38, 4-[[3-(2,3-difluoro-4-methoxyphenyl)imidazo[1,2-a]pyrazin-8-yl]amino]-2-methyl-N-[(3R)-pyrrolidin-3-yl]benzamide] |
| 290 nM | 288 nM | CCc1cc(Nc2nccn3c(-c4ccc(OC)c(F)c4F)cnc23)ccc1C(=O)NC1CCC1N (centres unmarked) [Example 39, N-(2-aminocyclobutyl)-4-[[3-(2,3-difluoro-4-methoxyphenyl)imidazo[1,2-a]pyrazin-8-yl]amino]-2-ethylbenzamide] |
| 482 nM | – | CCc1cc(Nc2nccn3c(-c4ccc(OC)c(F)c4F)cnc23)ccc1C(=O)NC1(CN)COC1 [Example 40, N-(3-(aminomethyl)oxetan-3-yl)-4-((3-(2,3-difluoro-4-methoxyphenyl)imidazo[1,2-a]pyrazin-8-yl)amino)-2-ethylbenzamide hydrochloride] |
| 290 nM | 290 nM | COc1ccc(-c2cnc3c(Nc4ccc(C(=O)N(C)CCC(=O)N5CCNCC5)c(C)c4)nccn23)cc1F [Reference Example 10, 4-[[3-(3-fluoro-4-methoxy-phenyl)imidazo[1,2-a]pyrazin-8-yl]amino]-N,2-dimethyl-N-(3-oxo-3-piperazin-1-yl-propyl)benzamide] |
